Patent publication US20180057505A1, “BICYCLIC HETEROARYL COMPOUNDS USEFUL AS INHIBITORS OF THE PAR-2 SIGNALING PATHWAY” (VERTEX PHARMACEUTICALS INCORPORATED, priority 2015, published 2018)

Legend:
Format in all cases: cell-based
[1] = test system: UTP-stimulated Ca2+ response in HT-29 cells; test: Ca FLIPR TETRA assay, ANTAGONIST mode, activator 0.6 μM UTP; conditions: Homo sapiens; HT-29 cells, activator 0.6 μM UTP
Summary of the method: (§1)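 Antagonist mode, HT-29: cells O/N 37 °C, 1% FBS; calcium 5 dye 45 min 37 °C + 15 min RT; cpd (DMSO, HBSS-diluted) 30 min RT; activator at final conc. (8 μM SLIGKV / 1 U/mL thrombin / 3.1 U/mL trypsin / 0.6 μM UTP); FLIPR Tetra Ca2+ read.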

PAR2 (HT-29 cells) [2] = molecular target: T1, PAR2 (HT-29 cells) (Homo sapiens, UniProt P55085); test: Ca FLIPR TETRA assay, ANTAGONIST mode, activator 8 μM SLIGKV; conditions: HT-29 cells, activator 8 μM SLIGKV
T1 construct: host or cells: HT-29
T1 sequence (P55085 26-397): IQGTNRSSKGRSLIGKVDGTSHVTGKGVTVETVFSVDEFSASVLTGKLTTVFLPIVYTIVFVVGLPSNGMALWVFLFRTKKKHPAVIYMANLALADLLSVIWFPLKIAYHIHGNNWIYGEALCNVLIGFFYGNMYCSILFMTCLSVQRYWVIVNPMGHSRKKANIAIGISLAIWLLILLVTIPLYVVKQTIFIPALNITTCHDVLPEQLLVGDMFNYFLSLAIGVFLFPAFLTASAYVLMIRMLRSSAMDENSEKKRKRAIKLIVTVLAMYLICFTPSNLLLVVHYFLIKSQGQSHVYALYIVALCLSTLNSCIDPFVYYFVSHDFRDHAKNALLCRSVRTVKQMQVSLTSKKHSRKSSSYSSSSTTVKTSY
Summary of the method: as §1

PAR2 (HT-29 cells) [3] = molecular target: T1, PAR2 (HT-29 cells); test: Ca FLIPR TETRA assay, ANTAGONIST mode, activator 3.1 U/mL trypsin; conditions: HT-29 cells, activator 3.1 U/mL trypsin
Summary of the method: as §1

[4] = test system: Thrombin-stimulated Ca2+ response in HT-29 cells; test: Ca FLIPR TETRA assay, ANTAGONIST mode, activator 1 U/mL Thrombin; conditions: Homo sapiens; HT-29 cells, activator 1 U/mL Thrombin
Summary of the method: as §1

[5] = maximal antagonist concentration per Method (A: 0.1, 1 or 2 μM; B: 50 μM)
[6] = Method A: maximal concentration of antagonist 0.1, 1 or 2 μM

| SMILES | IC50 [1] [nM] | IC50 (PAR2 (HT-29 cells) [2]; [5]) [nM] | IC50 (PAR2 (HT-29 cells) [3]; [5]) [nM] | IC50 [4] [nM] | IC50 (PAR2 (HT-29 cells) [2]; [6]) [nM] | IC50 (PAR2 (HT-29 cells) [3]; [6]) [nM] |
| --- | --- | --- | --- | --- | --- | --- |
| CC1(C)CCC(c2cc(C(C)(C)C)c3oc(C(=O)N4CCN(c5ccc(C(=O)O)cn5)C(=O)C4(C)C)cc3n2)CC1 [Example I-281, 6-[4-[7-tert-butyl-5-(4,4-dimethylcyclohexyl)furo[3,2-b]pyridine-2-carbonyl]-3,3-dimethyl-2-oxo-piperazin-1-yl]pyridine-3-carboxylic acid] | > 2000 | 3.6 | 7.4 | 1750 | – | – |
| CC(C)(C)c1cc(-c2ccc(Cl)cc2)nc2cc(C(=O)N3CCN(c4ccc(C(=O)O)cn4)C(=O)C3(C)C)oc12 [Example I-282, 6-[4-[7-tert-butyl-5-(4-chlorophenyl)furo[3,2-b]pyridine-2-carbonyl]-3,3-dimethyl-2-oxo-piperazin-1-yl]pyridine-3-carboxylic acid] | 1800 | 7.5 | 8.3 | 1600 | – | – |
| CC1(C)CCC(c2cc(C(C)(C)C)c3oc(C(=O)N4CCN(c5ccn[nH]5)C(=O)C4(C)C)cc3n2)CC1 [Example I-283, 4-[7-tert-butyl-5-(4,4-dimethylcyclohexyl)furo[3,2-b]pyridine-2-carbonyl]-3,3-dimethyl-1-(1H-pyrazol-5-yl)piperazin-2-one] | > 2000 | 18 | 61.5 | > 2000 | – | – |
| Cc1cc(N2CCN(C(=O)c3cc4nc(-c5ccc(Cl)c(F)c5)cc(C(C)(C)C)c4o3)C(C)(C)C2=O)[nH]n1 [Example I-284, 4-[7-tert-butyl-5-(4-chloro-3-fluoro-phenyl)furo[3,2-b]pyridine-2-carbonyl]-3,3-dimethyl-1-(3-methyl-1H-pyrazol-5-yl)piperazin-2-one] | > 2000 | 13 | 14.5 | > 2000 | – | – |
| Cc1cc(N2CCN(C(=O)c3cc4nc(-c5ccc(Cl)cc5)cc(C(C)(C)C)c4o3)C(C)(C)C2=O)[nH]n1 [Example I-285, 4-[7-tert-butyl-5-(4-chlorophenyl)furo[3,2-b]pyridine-2-carbonyl]-3,3-dimethyl-1-(3-methyl-1H-pyrazol-5-yl)piperazin-2-one] | > 2000 | 28 | 23.5 | > 2000 | – | – |
| CC(C)(C)c1cc(-c2ccc(Cl)c(F)c2)nc2cc(C(=O)N3CCN(c4cc(C(=O)O)ccn4)CC3(C)C)oc12 [Example I-286] | > 2000 | 1.4 | 2.6 | > 2000 | – | – |
| CC(C)(C)c1cc(-c2ccc(Cl)c(F)c2)nc2cc(C(=O)N3CCN(c4ccc(C(=O)O)cn4)CC3(C)C)oc12 [Example I-287] | 1620 | 0.3 | 0.5 | 1800 | – | – |
| CC(C)(C)c1cc(-c2ccc(Cl)c(F)c2)nc2cc(C(=O)N3CCN(c4nc(C(=O)O)co4)CC3(C)C)oc12 [Example I-289] | > 2000 | 0.1 | 0.3 | > 2000 | – | – |
| Cn1cc(C(=O)O)c(C(=O)N2CCN(C(=O)c3cc4nc(C5CC6(CCC6)C5)cc(C(C)(C)C)c4o3)C(C)(C)C2)n1 [Example I-291] | > 2000 | 0.7 | 1.1 | > 2000 | – | – |

Continued, values first:

| IC50 [1] [nM] | IC50 (PAR2 (HT-29 cells) [2]; [5]) [nM] | IC50 (PAR2 (HT-29 cells) [3]; [5]) [nM] | IC50 [4] [nM] | IC50 (PAR2 (HT-29 cells) [2]; [6]) [nM] | IC50 (PAR2 (HT-29 cells) [3]; [6]) [nM] | SMILES |
| --- | --- | --- | --- | --- | --- | --- |
| > 2000 | 3.5 | 7.1 | > 2000 | – | – | CC(C)(C)c1cc(C2CC3(CCC3)C2)nc2cc(C(=O)N3CCN(C(=O)CCC(=O)O)CC3(C)C)oc12 [Example I-292] |
| > 2000 | 5.4 | 6.7 | > 2000 | – | – | CCS(=O)(=O)NCC(=O)N1CCN(C(=O)c2cc3nc(C4CC5(CCC5)C4)cc(C(C)(C)C)c3o2)C(C)(C)C1 [Example I-293] |
| > 2000 | 1.5 | 3.6 | > 2000 | – | – | Cc1cc(C(=O)N2CCN(C(=O)c3cc4nc(C5CC6(CCC6)C5)cc(C(C)(C)C)c4o3)C(C)(C)C2)[nH]n1 [Example I-294] |
| > 2000 | 7.3 | 22 | > 2000 | – | – | Cc1n[nH]c(C(=O)N2CCN(C(=O)c3cc4nc(C5CC6(CCC6)C5)cc(C(C)(C)C)c4o3)C(C)(C)C2)n1 [Example I-295] |
| > 2000 | 0.7 | 0.7 | > 2000 | – | – | CC(C)(C)c1cc(C2CC3(CCC3)C2)nc2cc(C(=O)N3CCN(C(=O)[C@H]4C[C@@](C)(O)C4)CC3(C)C)oc12 [Example I-296] |
| 1200 | 0.2 | 0.2 | 1400 | – | – | CC(C)(C)c1cc(C2CC3(CCC3)C2)nc2cc(C(=O)N3CCN(C(=O)[C@H]4CC[C@@](C)(C(=O)O)CC4)CC3(C)C)oc12 [Example I-297] |
| 510 | – | – | 510 | 14 | 18 | CC(C)(C)c1cc(C2CC3(CCC3)C2)nc2cc(C(=O)N3CCN(C(=O)[C@H]4CC[C@](C)(C(=O)O)CC4)CC3(C)C)oc12 [Example I-298] |
